Laboratory results published in publication PMC11842588, “A first-in-class selective inhibitor of ERK1/2 and ERK5 overcomes drug resistance with a single-molecule strategy” (Signal Transduction and Targeted Therapy, 2025).

Assays:
Assay in all cases: Kinase profiling
Assay type in all cases: biochemical
MAPK7(h) = biological target: T1, MAPK7(h) (Homo sapiens, UniProt Q13164)
T1 construct: purchased Eurofins Cerep SA (KinaseProfiler)
Procedure: (§1) 380 kinases inhibitory activities of SKLB-D18 were conducted by Eurofins Cerep SA. The result was illustrated by kinase tree (http://www.kinhub.org/kinmap/).

CDK1/cyclinB(h) = biological target: T2, CDK1/cyclinB(h) (Homo sapiens, UniProt P06493)
T2 construct: purchased Eurofins Cerep SA (KinaseProfiler)
Procedure: as §1

ATR/ATRIP(h) = biological target: T3, ATR/ATRIP(h) (Homo sapiens, UniProt Q13535)
T3 construct: purchased Eurofins Cerep SA (KinaseProfiler)
Procedure: as §1

CK1α(h) = biological target: T4, CK1α(h) (Homo sapiens, UniProt P48729)
T4 construct: purchased Eurofins Cerep SA (KinaseProfiler)
Procedure: as §1

CDKL3(h) = biological target: T5, CDKL3(h) (Homo sapiens, UniProt Q8IVW4)
T5 construct: purchased Eurofins Cerep SA (KinaseProfiler)
Procedure: as §1

JNK2α2(h) = biological target: T6, JNK2α2(h) (Homo sapiens, UniProt P45984)
T6 construct: purchased Eurofins Cerep SA (KinaseProfiler)
Procedure: as §1

MKK3(h) = biological target: T7, MKK3(h) (Homo sapiens, UniProt P46734)
T7 construct: purchased Eurofins Cerep SA (KinaseProfiler)
Procedure: as §1

PDGFRα(h) = biological target: T8, PDGFRα(h) (Homo sapiens, UniProt P16234)
T8 construct: purchased Eurofins Cerep SA (KinaseProfiler)
Procedure: as §1

Pim-3(h) = biological target: T9, Pim-3(h) (Homo sapiens, UniProt Q86V86)
T9 construct: purchased Eurofins Cerep SA (KinaseProfiler)
Procedure: as §1

MOK(h) = biological target: T10, MOK(h) (Homo sapiens, UniProt Q9UQ07)
T10 construct: purchased Eurofins Cerep SA (KinaseProfiler)
Procedure: as §1

CDK4/cyclinD3(h) = biological target: T11, CDK4/cyclinD3(h) (Homo sapiens, UniProt P11802)
T11 construct: purchased Eurofins Cerep SA (KinaseProfiler)
Procedure: as §1

TGFBR2(h) = biological target: T12, TGFBR2(h) (Homo sapiens, UniProt P37173)
T12 construct: purchased Eurofins Cerep SA (KinaseProfiler)
Procedure: as §1

EphA4(h) = biological target: T13, EphA4(h) (Homo sapiens, UniProt P54764)
T13 construct: purchased Eurofins Cerep SA (KinaseProfiler)
Procedure: as §1

Fms(h) = biological target: T14, Fms(h) (Homo sapiens, UniProt P07333)
T14 construct: purchased Eurofins Cerep SA (KinaseProfiler)
Procedure: as §1

TLK1(h) = biological target: T15, TLK1(h) (Homo sapiens, UniProt Q9UKI8)
T15 construct: purchased Eurofins Cerep SA (KinaseProfiler)
Procedure: as §1

PKCγ(h) = biological target: T16, PKCγ(h) (Homo sapiens, UniProt P05129)
T16 construct: purchased Eurofins Cerep SA (KinaseProfiler)
Procedure: as §1

EphB1(h) = biological target: T17, EphB1(h) (Homo sapiens, UniProt P54762)
T17 construct: purchased Eurofins Cerep SA (KinaseProfiler)
Procedure: as §1

GRK4(h) = biological target: T18, GRK4(h) (Homo sapiens, UniProt P32298)
T18 construct: purchased Eurofins Cerep SA (KinaseProfiler)
Procedure: as §1

SAPK4(h) = biological target: T19, SAPK4(h) (Homo sapiens, UniProt O15264)
T19 construct: purchased Eurofins Cerep SA (KinaseProfiler)
Procedure: as §1

ALK6(h) = biological target: T20, ALK6(h) (Homo sapiens, UniProt O00238)
T20 construct: purchased Eurofins Cerep SA (KinaseProfiler)
Procedure: as §1

FGFR4(h) = biological target: T21, FGFR4(h) (Homo sapiens, UniProt P22455)
T21 construct: purchased Eurofins Cerep SA (KinaseProfiler)
Procedure: as §1

SGK3(h) = biological target: T22, SGK3(h) (Homo sapiens, UniProt Q96BR1)
T22 construct: purchased Eurofins Cerep SA (KinaseProfiler)
Procedure: as §1

RIPK1(h) = biological target: T23, RIPK1(h) (Homo sapiens, UniProt Q13546)
T23 construct: purchased Eurofins Cerep SA (KinaseProfiler)
Procedure: as §1

GSK3β(h) = biological target: T24, GSK3β(h) (Homo sapiens, UniProt P49841)
T24 construct: purchased Eurofins Cerep SA (KinaseProfiler)
Procedure: as §1

CaMKIIα(h) = biological target: T25, CaMKIIα(h) (Homo sapiens, UniProt Q9UQM7)
T25 construct: purchased Eurofins Cerep SA (KinaseProfiler)
Procedure: as §1

CHK2(h) = biological target: T26, CHK2(h) (Homo sapiens, UniProt O96017)
T26 construct: purchased Eurofins Cerep SA (KinaseProfiler)
Procedure: as §1

PEK(h) = biological target: T27, PEK(h) (Homo sapiens, UniProt Q9NZJ5)
T27 construct: purchased Eurofins Cerep SA (KinaseProfiler)
Procedure: as §1

cKit(h) = biological target: T28, cKit(h) (Homo sapiens, UniProt P10721)
T28 construct: purchased Eurofins Cerep SA (KinaseProfiler)
Procedure: as §1

DNA-PK(h) = biological target: T29, DNA-PK(h) (Homo sapiens, UniProt P78527)
T29 construct: purchased Eurofins Cerep SA (KinaseProfiler)
Procedure: as §1

TrkC(h) = biological target: T30, TrkC(h) (Homo sapiens, UniProt Q16288)
T30 construct: purchased Eurofins Cerep SA (KinaseProfiler)
Procedure: as §1

ULK2(h) = biological target: T31, ULK2(h) (Homo sapiens, UniProt Q8IYT8)
T31 construct: purchased Eurofins Cerep SA (KinaseProfiler)
Procedure: as §1

PAK4(h) = biological target: T32, PAK4(h) (Homo sapiens, UniProt O96013)
T32 construct: purchased Eurofins Cerep SA (KinaseProfiler)
Procedure: as §1

TSSK3(h) = biological target: T33, TSSK3(h) (Homo sapiens, UniProt Q96PN8)
T33 construct: purchased Eurofins Cerep SA (KinaseProfiler)
Procedure: as §1

IKKε(h) = biological target: T34, IKKε(h) (Homo sapiens, UniProt Q14164)
T34 construct: purchased Eurofins Cerep SA (KinaseProfiler)
Procedure: as §1

DDR1(h) = biological target: T35, DDR1(h) (Homo sapiens, UniProt Q08345)
T35 construct: purchased Eurofins Cerep SA (KinaseProfiler)
Procedure: as §1

NEK4(h) = biological target: T36, NEK4(h) (Homo sapiens, UniProt P51957)
T36 construct: purchased Eurofins Cerep SA (KinaseProfiler)
Procedure: as §1

Hck(h) activated = biological target: T37, Hck(h) activated (Homo sapiens, UniProt P08631)
T37 construct: purchased Eurofins Cerep SA (KinaseProfiler)
Procedure: as §1

Cdc7/cyclinB1(h) = biological target: T38, Cdc7/cyclinB1(h) (Homo sapiens, UniProt O00311)
T38 construct: purchased Eurofins Cerep SA (KinaseProfiler)
Procedure: as §1

TrkB(h) = biological target: T39, TrkB(h) (Homo sapiens, UniProt Q16620)
T39 construct: purchased Eurofins Cerep SA (KinaseProfiler)
Procedure: as §1

TYK2(h) = biological target: T40, TYK2(h) (Homo sapiens, UniProt P29597)
T40 construct: purchased Eurofins Cerep SA (KinaseProfiler)
Procedure: as §1

MEK2(h) = biological target: T41, MEK2(h) (Homo sapiens, UniProt P36507)
T41 construct: purchased Eurofins Cerep SA (KinaseProfiler)
Procedure: as §1

T4 sequence (P48729 whole entry): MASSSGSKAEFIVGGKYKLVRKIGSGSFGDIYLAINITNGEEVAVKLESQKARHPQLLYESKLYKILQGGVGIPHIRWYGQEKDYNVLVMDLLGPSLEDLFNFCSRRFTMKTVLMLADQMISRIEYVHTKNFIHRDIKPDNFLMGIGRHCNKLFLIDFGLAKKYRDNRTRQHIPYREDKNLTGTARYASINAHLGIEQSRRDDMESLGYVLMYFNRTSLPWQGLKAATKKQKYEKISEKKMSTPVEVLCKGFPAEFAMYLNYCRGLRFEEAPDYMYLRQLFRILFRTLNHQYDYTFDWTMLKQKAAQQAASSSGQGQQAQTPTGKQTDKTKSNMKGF
T21 sequence (P22455 22-802): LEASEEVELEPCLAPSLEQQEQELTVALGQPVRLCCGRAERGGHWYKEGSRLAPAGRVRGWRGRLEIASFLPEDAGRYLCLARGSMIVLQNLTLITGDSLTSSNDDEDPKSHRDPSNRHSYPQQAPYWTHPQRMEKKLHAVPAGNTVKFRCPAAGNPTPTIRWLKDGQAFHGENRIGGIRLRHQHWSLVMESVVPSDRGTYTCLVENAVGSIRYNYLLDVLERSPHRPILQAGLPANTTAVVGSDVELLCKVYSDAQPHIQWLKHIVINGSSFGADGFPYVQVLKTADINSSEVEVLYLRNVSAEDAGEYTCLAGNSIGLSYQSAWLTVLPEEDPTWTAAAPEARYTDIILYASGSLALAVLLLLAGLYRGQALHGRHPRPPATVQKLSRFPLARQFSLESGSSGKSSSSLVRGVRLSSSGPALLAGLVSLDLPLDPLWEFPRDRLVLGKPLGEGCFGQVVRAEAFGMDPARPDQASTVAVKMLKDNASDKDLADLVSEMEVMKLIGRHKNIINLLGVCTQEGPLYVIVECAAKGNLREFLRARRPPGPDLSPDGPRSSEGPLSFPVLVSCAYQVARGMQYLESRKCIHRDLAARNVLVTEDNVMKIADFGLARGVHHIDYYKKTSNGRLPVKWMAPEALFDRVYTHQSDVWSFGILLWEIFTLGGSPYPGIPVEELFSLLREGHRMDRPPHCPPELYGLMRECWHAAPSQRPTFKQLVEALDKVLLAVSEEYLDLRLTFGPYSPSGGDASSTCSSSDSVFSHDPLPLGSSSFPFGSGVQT
T41 sequence (P36507 whole entry): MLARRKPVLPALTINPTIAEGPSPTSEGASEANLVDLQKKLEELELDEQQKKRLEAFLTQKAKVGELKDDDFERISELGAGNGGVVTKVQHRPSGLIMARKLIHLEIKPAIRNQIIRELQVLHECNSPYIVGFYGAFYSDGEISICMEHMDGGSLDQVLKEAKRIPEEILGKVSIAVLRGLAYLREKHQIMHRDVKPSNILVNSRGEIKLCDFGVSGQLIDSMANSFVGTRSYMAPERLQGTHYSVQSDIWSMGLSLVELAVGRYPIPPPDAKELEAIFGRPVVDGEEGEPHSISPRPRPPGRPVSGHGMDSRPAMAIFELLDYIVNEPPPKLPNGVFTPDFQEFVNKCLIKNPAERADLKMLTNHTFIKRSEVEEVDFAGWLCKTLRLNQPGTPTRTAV
T38 sequence (O00311 whole entry): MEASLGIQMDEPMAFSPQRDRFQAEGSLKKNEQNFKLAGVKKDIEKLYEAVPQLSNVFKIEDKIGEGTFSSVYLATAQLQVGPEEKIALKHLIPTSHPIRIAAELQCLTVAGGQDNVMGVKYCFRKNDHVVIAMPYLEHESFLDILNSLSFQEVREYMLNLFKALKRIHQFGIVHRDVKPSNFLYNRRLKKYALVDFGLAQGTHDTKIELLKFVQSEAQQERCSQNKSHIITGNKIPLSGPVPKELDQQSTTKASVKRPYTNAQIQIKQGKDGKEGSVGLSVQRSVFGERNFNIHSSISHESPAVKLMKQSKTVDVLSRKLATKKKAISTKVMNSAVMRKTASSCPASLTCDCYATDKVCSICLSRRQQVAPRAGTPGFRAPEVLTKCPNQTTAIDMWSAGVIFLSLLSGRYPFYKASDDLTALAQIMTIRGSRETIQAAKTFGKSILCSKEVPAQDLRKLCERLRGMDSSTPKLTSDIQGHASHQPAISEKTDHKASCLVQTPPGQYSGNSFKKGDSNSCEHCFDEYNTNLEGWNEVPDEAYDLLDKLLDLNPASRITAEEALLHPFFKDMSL
T7 sequence (P46734 whole entry): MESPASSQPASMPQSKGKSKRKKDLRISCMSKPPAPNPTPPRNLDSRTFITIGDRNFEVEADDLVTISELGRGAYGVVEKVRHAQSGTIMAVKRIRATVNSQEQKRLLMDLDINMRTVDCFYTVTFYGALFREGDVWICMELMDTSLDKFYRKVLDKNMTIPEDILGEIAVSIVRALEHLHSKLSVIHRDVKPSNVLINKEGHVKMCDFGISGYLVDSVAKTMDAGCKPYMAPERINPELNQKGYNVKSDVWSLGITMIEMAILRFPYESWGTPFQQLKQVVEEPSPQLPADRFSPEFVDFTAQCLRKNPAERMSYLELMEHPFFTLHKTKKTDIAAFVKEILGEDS
T14 sequence (P07333 20-972): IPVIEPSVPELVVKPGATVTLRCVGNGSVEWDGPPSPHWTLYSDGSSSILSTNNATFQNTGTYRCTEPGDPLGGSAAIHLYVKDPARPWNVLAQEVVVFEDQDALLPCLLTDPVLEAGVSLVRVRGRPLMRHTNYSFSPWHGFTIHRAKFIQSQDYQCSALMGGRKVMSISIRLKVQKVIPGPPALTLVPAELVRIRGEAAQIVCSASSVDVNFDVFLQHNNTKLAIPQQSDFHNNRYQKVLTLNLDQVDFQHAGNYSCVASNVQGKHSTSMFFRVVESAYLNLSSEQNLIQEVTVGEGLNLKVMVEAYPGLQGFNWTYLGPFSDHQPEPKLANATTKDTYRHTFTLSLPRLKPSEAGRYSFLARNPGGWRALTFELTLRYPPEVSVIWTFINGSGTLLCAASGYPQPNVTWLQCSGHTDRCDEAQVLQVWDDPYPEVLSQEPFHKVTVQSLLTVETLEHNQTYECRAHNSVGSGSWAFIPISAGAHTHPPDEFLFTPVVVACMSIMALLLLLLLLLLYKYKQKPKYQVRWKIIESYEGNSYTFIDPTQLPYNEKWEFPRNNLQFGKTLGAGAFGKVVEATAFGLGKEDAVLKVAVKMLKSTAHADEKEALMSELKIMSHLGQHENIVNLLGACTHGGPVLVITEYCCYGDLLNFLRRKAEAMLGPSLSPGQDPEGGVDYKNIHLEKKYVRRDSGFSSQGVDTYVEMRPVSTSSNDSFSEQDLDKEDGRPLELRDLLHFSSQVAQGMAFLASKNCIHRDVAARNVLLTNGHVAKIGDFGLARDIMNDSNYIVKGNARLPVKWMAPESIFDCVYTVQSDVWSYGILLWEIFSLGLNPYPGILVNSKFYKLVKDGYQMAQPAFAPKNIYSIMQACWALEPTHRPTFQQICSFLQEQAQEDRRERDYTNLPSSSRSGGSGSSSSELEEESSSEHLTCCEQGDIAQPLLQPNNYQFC
T36 sequence (P51957 whole entry): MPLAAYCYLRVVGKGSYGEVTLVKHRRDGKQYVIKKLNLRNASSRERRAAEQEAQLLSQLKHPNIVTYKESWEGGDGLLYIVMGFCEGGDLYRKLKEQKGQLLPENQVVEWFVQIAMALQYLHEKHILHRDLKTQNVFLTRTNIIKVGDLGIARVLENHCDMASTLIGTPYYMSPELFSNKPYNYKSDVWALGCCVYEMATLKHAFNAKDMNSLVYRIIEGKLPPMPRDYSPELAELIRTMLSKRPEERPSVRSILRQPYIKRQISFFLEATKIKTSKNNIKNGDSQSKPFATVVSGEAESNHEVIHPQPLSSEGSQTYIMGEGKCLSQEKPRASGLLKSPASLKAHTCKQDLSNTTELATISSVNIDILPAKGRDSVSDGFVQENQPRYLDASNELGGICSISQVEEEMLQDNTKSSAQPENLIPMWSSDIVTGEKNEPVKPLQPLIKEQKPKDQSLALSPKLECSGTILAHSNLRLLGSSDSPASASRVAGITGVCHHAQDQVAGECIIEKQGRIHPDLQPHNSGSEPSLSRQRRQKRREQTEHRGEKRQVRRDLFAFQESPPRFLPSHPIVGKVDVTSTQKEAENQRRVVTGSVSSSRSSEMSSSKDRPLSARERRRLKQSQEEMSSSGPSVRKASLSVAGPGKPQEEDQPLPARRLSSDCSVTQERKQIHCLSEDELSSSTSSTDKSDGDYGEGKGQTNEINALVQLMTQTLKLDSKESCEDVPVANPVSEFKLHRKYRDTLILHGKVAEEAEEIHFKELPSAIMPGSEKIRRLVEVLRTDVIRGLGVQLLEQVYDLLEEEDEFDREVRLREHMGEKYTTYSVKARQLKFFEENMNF
T26 sequence (O96017 whole entry): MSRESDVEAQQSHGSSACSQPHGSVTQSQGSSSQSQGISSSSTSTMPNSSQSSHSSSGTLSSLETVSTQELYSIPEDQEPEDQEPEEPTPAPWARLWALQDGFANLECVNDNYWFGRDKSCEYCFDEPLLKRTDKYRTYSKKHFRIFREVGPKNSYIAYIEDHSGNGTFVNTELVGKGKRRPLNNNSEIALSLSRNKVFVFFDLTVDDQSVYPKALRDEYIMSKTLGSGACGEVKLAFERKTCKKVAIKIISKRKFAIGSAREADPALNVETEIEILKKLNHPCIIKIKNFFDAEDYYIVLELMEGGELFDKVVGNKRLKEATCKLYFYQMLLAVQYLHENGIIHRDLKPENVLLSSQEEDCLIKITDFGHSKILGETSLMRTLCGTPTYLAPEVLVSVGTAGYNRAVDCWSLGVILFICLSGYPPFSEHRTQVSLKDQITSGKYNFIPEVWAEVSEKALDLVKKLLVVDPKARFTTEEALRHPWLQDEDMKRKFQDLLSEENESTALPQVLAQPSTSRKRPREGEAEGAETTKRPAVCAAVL

`CN(C)Cc1cccc(Nc2ncc(Cl)c(-c3csc(C(=O)NN4CCOCC4)c3)n2)c1` [SKLB-D18, 4-(5-chloro-2-((3-((dimethylamino)methyl)phenyl)amino)pyrimidin-4-yl)-N-morpholinothiophene-2-carboxamide] was tested, and the inhibition at 1 µM (MAPK7(h)) was 93%, the inhibition at 1 µM (CDK1/cyclinB(h)) was 44% and the inhibition at 1 µM (ATR/ATRIP(h)) was 13%. For the same molecule, the inhibition at 1 µM (CK1α(h)) was 8%, the inhibition at 1 µM (CDKL3(h)) was 54% and the inhibition at 1 µM (JNK2α2(h)) was 48%. It also gave an inhibition at 1 µM (MKK3(h)) of 4%, an inhibition at 1 µM (PDGFRα(h)) of 37% and an inhibition at 1 µM (Pim-3(h)) of 33%. For the same molecule, the inhibition at 1 µM (MOK(h)) was 31%, the inhibition at 1 µM (CDK4/cyclinD3(h)) was 60% and the inhibition at 1 µM (TGFBR2(h)) was 30%. It also gave an inhibition at 1 µM (EphA4(h)) of 6%, an inhibition at 1 µM (Fms(h)) of 34% and an inhibition at 1 µM (TLK1(h)) of 24%. The inhibition at 1 µM (PKCγ(h)) was 27%, the inhibition at 1 µM (EphB1(h)) was 23% and the inhibition at 1 µM (GRK4(h)) was 16%. It also gave an inhibition at 1 µM (SAPK4(h)) of 53%, an inhibition at 1 µM (ALK6(h)) of 10% and an inhibition at 1 µM (FGFR4(h)) of 8%. It also gave an inhibition at 1 µM (SGK3(h)) of 9%, an inhibition at 1 µM (RIPK1(h)) of 9% and an inhibition at 1 µM (GSK3β(h)) of 68%. For the same molecule, the inhibition at 1 µM (CaMKIIα(h)) was -25%, the inhibition at 1 µM (CHK2(h)) was 19% and the inhibition at 1 µM (PEK(h)) was 3%. The inhibition at 1 µM (cKit(h)) was 69%, the inhibition at 1 µM (DNA-PK(h)) was 10% and the inhibition at 1 µM (TrkC(h)) was 43%. It also gave an inhibition at 1 µM (ULK2(h)) of 67%, an inhibition at 1 µM (PAK4(h)) of 21% and an inhibition at 1 µM (TSSK3(h)) of 53%. For the same molecule, the inhibition at 1 µM (IKKε(h)) was 64%, the inhibition at 1 µM (DDR1(h)) was 35% and the inhibition at 1 µM (NEK4(h)) was 66%. It also gave an inhibition at 1 µM (Hck(h) activated) of 32%, an inhibition at 1 µM (Cdc7/cyclinB1(h)) of 30% and an inhibition at 1 µM (TrkB(h)) of 46%. For the same molecule, the inhibition at 1 µM (TYK2(h)) was 83% and the inhibition at 1 µM (MEK2(h)) was 59%.
